The conditions of this series: screened with a sieve (1.00 mm, No. 18), poured into glass graduated measuring cylinder, apparent volume. Here is the method:
The tops were scraped flat. The apparent volumes were recorded. The bulk densities were calculated.

The structures appear in SMILES notation.

As to `NC(=O)c1ccc[n+]([C@@H]2O[C@H](COP(=O)([O-])O)[C@@H](O)[C@H]2O)c1` [Form 1, nicotinamide mononucleotide anhydrous crystal (form 1)], the Bulk density came to 0.15 g/mL.

For the origin of these results see US11932602B2, “Method for preparing nicotinamide mononucleotide cocrystal” (BONTAC BIO-ENGINEERING(SHENZHEN) CO., LTD, priority 2021, dated 2024).
